# Like-named read-outs stand apart in the source and are kept apart here.
# Assays:
# Assay type in all cases: cell-based
# [1] = system: Fusarium solani (ATCC 36031); assay: Stand-alone biocidal test without organic soil; details: Fusarium solani, read-out: Stand-alone biocidal result (microbial log reduction) F. solani
# Description: (§1) A test was conducted to study the microbiocidal efficacy of a solution containing a quaternary ammonium ester of the present invention employing borate buffered saline (BBS). The antimicrobial efficacy of each of the various compositions for the chemical disinfection of contact lenses was evaluated. Microbial challenge inoculums were prepared using Pseudomonas aeruginosa (ATCC 9027), Staphylococcus aureus (ATCC 6538), Serratia marcescens (ATCC 13880), Candida albicans (ATCC 10231) and Fusarium solani (ATCC 36031). The test organisms were cultured on appropriate agar and the cultures were harvested using sterile DPBST (Dulbecco's Phosphate Buffered Saline plus 0.05 percent weight/volume polysorbate 80) or a suitable diluent and transferred to a suitable vessel. Spore suspensions were filtered through sterile glass wool to remove hyphal fragments. Serratia marcescens, as appropriate, was filtered through a 1.2 mμ filter to clarify the suspension. After harvesting, the suspension was centrifuged at no more than 5000×g for a maximum of 30 minutes at 20 to 25° C. The supernatant was poured off and resuspended in DPBST or other suitable diluent. The suspension was centrifuged a second time, and resuspended in DPBST or other suitable diluent. All challenge bacterial and fungal cell suspensions were adjusted with DPBST or other suitable diluent to 1×10^7 to 1×10^8 cfu/ml. The appropriate cell concentration may be estimated by measuring the turbidity of the suspension, for example, using a spectrophotometer at a preselected wavelength, for example 490 nm. One tube was prepared containing a minimum of 10 ml of test solution per challenge organism. Each tube of the solution to be tested was inoculated with a suspension of the test organism sufficient to provide a final count of 1×10^5 to 1×10^6 cfu/ml, the volume of the inoculum not exceeding 1 percent of the sample volume. Dispersion of the inoculum was ensured by vortexing the sample for at least 15 seconds. The inoculated product was stored at 10 to 25° C. Aliquots in the amount of 1.0 ml were taken of the inoculated product for determination of viable counts after certain time periods of disinfection. The time points for the bacteria were, for example, 1, 2, 3 and 4 hours when the proposed regimen soaking time was four hours. Yeast and mold were tested at an additional timepoint of 16 hours (4 times the regimen time). The suspension was mixed well by vortexing vigorously for at least 5 seconds. The 1.0 ml aliquots removed at the specified time intervals were subjected to a suitable series of decimal dilutions in validated neutralizing media. The suspensions were mixed vigorously and incubated for a suitable period of time to allow for neutralization of the microbial agent at room temperature. The viable count of organisms was determined in appropriate dilutions by preparation of triplicate plates of trypticase soy (TSA) agar for bacteria and Sabouraud dextrose agar (SDA) for mold and yeast. The bacterial recovery plates were incubated at 30 to 35° C. for two to four days. The yeast was incubated at 20 to 30° C. for two to four days and mold recovery plates were incubated at 20 to 25° C. for three to seven days. The average number of colony forming units was determined on countable plates. Countable plates refer to 30 to 300 cfu/plates for bacteria and yeast, and 8 to 80 cfu/plate for mold except when colonies are observed only for the 10^0 or 10^−1 dilution plates. The microbial reduction was then calculated at the specified time points. […] Following inoculation in a validated neutralizing broth and incubation for an appropriate period of time, the inoculum control must be between 1.0×10^5 to 1.0×10^6 cfu/ml. […]
# [2] = system: Candida albicans (ATCC 10231); assay: Stand-alone biocidal test without organic soil; details: Candida albicans, read-out: Stand-alone biocidal result (microbial log reduction) C. albicans
# Description: as §1
# [3] = system: Pseudomonas aeruginosa (ATCC 9027); assay: Stand-alone biocidal test without organic soil; details: 25 ppm in BBS, without organic soil
# Description: as §1
# [4] = system: Staphylococcus aureus (ATCC 6538); assay: Stand-alone biocidal test without organic soil; details: 25 ppm in BBS, without organic soil
# Description: as §1
# [5] = system: Serratia marcescens (ATCC 13880); assay: Stand-alone biocidal test without organic soil; details: 25 ppm in BBS, without organic soil
# Description: as §1
# [6] = system: cells seeded in Millicell HA 13 mm inserts; assay: Sodium fluorescein permeability assay; details: 20 min
# Description: A 0.5 ml cell suspension containing 2×10^5 cells was seeded in Millicell HA 13 mm inserts (Millipore, Bedford, Mass.). The inserts were transferred into 24 well plates containing 0.5 ml of minimum essential medium (MEM) (BioWhittaker, Walkersville, Md.) per well. The plates were then incubated at 37° C. with 5 percent carbon dioxide for six days. Fresh media was added to the wells on days 2 through 6. On day 6 the inserts were used for the permeability assay.
# Each insert was gently rinsed three times with 1 ml of Hanks' balanced salt solution (HBSS) using a 10 ml syringe, without a needle. An amount of 0.5 ml of test solution was added to separate inserts that had been placed in a fresh 24 well plate. Triplicate inserts were used for each test solution. The inserts were incubated in a 100 percent humidified chamber at 37 degrees Celsius for twenty minutes. Each series of triplicate samples was handled sequentially to allow exact timing of the treatment and subsequent steps. After incubation, each insert was individually rinsed five times with 1 ml HBSS using a 10 ml syringe without a needle, and then placed in a fresh 24 well plate containing 0.5 ml HBSS in each well. To each insert was added 0.5 ml of sodium fluorescein (3 mg/100 ml in HBSS). The inserts were incubated at room temperature for twenty minutes, removed from the wells, and the amount of sodium fluorescein was measured using a fluorometer at […]. Triplicate negative controls (HBSS solution) and positive controls consisting of sodium dodecyl sulphate (SDS) in water were included during these evaluations. Sodium fluorescein permeability assay results for composition numbers 1 and 14 are summarized below in Table 4.
compound,measurement,setting,value
"CCCCCCCCCCCCCC(=O)OCCC[N+](C)(C)Cc1ccccc1 [Compound 1, N-myristoyloxypropyl-N-benzyl-N,N-dimethylammonium chloride]",log reduction at 25 ppm,"[1]; ATCC36031, 1 h",4
same,log reduction at 25 ppm,"[1]; ATCC36031, 4 h",4.2
same,log reduction at 25 ppm,"[2]; ATCC10231, 1 h",3.6
same,log reduction at 25 ppm,"[2]; ATCC10231, 4 h",> 4.8
same,Stand-alone biocidal result (microbial log reduction) P. aeruginosa,[3]; 1 hr.,>4.7
same,Stand-alone biocidal result (microbial log reduction) P. aeruginosa,[3]; 4 hr.,>4.7
same,Stand-alone biocidal result (microbial log reduction) S. aureus,[4]; 1 hr.,4.6
same,Stand-alone biocidal result (microbial log reduction) S. aureus,[4]; 4 hr.,>4.8
same,Stand-alone biocidal result (microbial log reduction) S. marcescens,[5]; 1 hr.,4.8
same,Stand-alone biocidal result (microbial log reduction) S. marcescens,[5]; 4 hr.,>4.8
same,"Sodium fluorescein permeability, Fluorescence Units",[6]; 5 ppm,71 Fluorescence Units
same,"Sodium fluorescein permeability, Fluorescence Units",[6]; 10 ppm,71 Fluorescence Units
same,"Sodium fluorescein permeability, Fluorescence Units",[6]; 15 ppm,77 Fluorescence Units
same,"Sodium fluorescein permeability, Fluorescence Units",[6]; 25 ppm,76 Fluorescence Units
same,"Sodium fluorescein permeability, Fluorescence Units",[6]; 100 ppm,554 Fluorescence Units
